“Also recorded” adds a separate entry of the source.
Experiments:
human REX-1 protein [1] = test: Western blot of human REX-1 protein after retinoic acid treatment, HEKa cells; format: cell-based; settings: RA 1 μM for 48 hours
Text: (§1) The following human carcinoma and leukemia cell lines were maintained as directed by the ATCC: breast cancer cells: MCF-7, MDA-MB-231, MDA-MB-453, MDA-MB-468, SK-BR3 and HS578T; prostate cancer cells: LnCAP; skin cancer cells: SCC-12, SCC-13; kidney cancer cells: SK-39; bladder cancer cells: HTB1, HT1376, HTB9; oral cavity (head and neck) cancer: SCC-4, SCC-9, SCC-25, SCC-15; leukemia cells: HL-60, NB4 and NTERA2 teratocarcinoma cells. Normal human mammary (HMEC); renal proximal tubule epithelial cells (RPTE); prostate epithelial cells (PrEC), keratinocytes (NHEK) and lung (NHBE, SAEC) epithelial cells were grown as directed by the supplier (Cambrex, Walkersville, Md.). Normal human keratinocytes were also purchased from Cascade Biologics (Portland, Oreg.) and cultured as directed. Non-tumorous bladder cancer samples were provided by Dr. Stephen Boorjian (Weill Medical College, Cornell University, NY, N.Y.) and are as described in Boorjian, S, Tickoo, S K, Mongan, N P et al. Reduced Lecithin:Retinol Acyltransferase (LRAT) Expression Correlates with Increased Pathologic Tumor Stage in Bladder Cancer. Clinical Cancer Research 2004; 10:In press. Normal and All-trans-retinoic acid (RA) (Sigma, St. Louis, Mo.) was dissolved in ethanol and used at a final concentration of 20 nM or 1 μM as indicated in the descriptions of the figures. […]

hRex1 = test: RT-PCR of hRex1 expression after retinoic acid treatment; format: cell-based, human; settings: MDA-MB-468 cells
human REX-1 protein [2] = test: Western blot of human REX-1 protein after retinoic acid treatment, MDA-MB-468 cells; format: cell-based; settings: RA 1 μM for 48 hours
Text: as §1

[3] = tested on: polyclonal rabbit anti-human REX-1 antibody; test: Immunohistochemistry peptide competition of anti-REX-1 antibody staining in normal renal parenchyma; format: binding; settings: 1 μg/mL free peptide, normal renal parenchyma sections
Description: Paraffin-embedded sections. Five micron tissue sections were cut from the patient blocks, and the sections were deparaffinized in Histoclear™(National Diagnostics, Atlanta, Ga.) followed by rehydration in a graded series of ethanol. Antigen retrieval was performed by heat with the Antigen Unmasking Solution (Vector Laboratories, Burlingame, Calif.) in a pressure cooker for 8 minutes. A 3% solution of H2O2 was used to quench the endogenous peroxidase activity (15 minute incubation). […] This was followed by incubation with the affinity-purified, polyclonal rabbit antihuman REX-1 primary antibody diluted 1:5 in 1.5% goat serum for 45-60 min. at room temperature, and then with 100 μL of horseradish peroxidase (HRP) conjugated goat anti-rabbit secondary antibody (SuperPicture, Zymed, San Francisco, Calif.) for 30 minutes at room temperature. Color was developed with the 3,3′-diaminobenzidine chromogen substrate, followed by counterstaining with hematoxylin (Vector). The negative control normal and tumor sections were treated identically to all other sections, with the exception that 1.5% normal goat serum was used in place of the primary antibody. […] All samples were analyzed using this identical protocol with the same reagents. The staining procedures were repeated at least three times with similar results.

| Compound | level of human REX-1 protein following RA treatment (human REX-1 protein [1]) | expression of hRex1 following RA treatment (hRex1) | expression of hRex1 following RA treatment (hRex1; listed as retinoic acid) | level of human REX-1 protein following RA treatment (human REX-1 protein [2]) | REX-1 antibody staining in presence of free peptide [3] |
| --- | --- | --- | --- | --- | --- |
| CC1=C(/C=C/C(C)=C/C=C/C(C)=C/C(=O)O)C(C)(C)CCC1 [RA, All-trans-retinoic acid] | did not alter; also recorded: unaltered | not reduced | does not decrease | did not alter; also recorded: unaltered | – |
| SNNLKAHILTHANTNKNEQEGK (listed as Homo sapiens) [free human REX-1 peptide] | – | – | – | – | staining was eliminated |
